ChEMBL document CHEMBL1201862, “PubChem BioAssay data set” (2004)
The source made the active and inactive calls.

Key:
[1] = target: T1, Carboxy-terminal domain RNA polymerase II polypeptide A small phosphatase 1 (Homo sapiens, UniProt Q9GZU7); experiment: inhibitors of CTDSP1, concentration-response testing, biochemical assay, absorbance-based, actives from ultra-high-throughput screening (AID 540297); type: functional
T1 sequence (Q9GZU7 whole entry): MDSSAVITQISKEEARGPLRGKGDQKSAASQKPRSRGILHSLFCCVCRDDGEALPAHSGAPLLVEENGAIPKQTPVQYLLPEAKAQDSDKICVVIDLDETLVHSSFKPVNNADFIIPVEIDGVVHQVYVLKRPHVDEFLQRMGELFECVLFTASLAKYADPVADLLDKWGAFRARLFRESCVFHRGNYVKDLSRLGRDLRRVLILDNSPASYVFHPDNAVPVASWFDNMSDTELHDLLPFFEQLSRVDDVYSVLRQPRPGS

[2] = target: DNA (cytosine-5)-methyltransferase 1 (Homo sapiens, UniProt P26358); experiment: DNMT1 methyltransferase inhibitors, confirmation, biochemical, fluorescent molecular beacon (AID 602386); type: functional
DNA (cytosine-5)-methyltransferase 1, sequence (P26358 whole entry): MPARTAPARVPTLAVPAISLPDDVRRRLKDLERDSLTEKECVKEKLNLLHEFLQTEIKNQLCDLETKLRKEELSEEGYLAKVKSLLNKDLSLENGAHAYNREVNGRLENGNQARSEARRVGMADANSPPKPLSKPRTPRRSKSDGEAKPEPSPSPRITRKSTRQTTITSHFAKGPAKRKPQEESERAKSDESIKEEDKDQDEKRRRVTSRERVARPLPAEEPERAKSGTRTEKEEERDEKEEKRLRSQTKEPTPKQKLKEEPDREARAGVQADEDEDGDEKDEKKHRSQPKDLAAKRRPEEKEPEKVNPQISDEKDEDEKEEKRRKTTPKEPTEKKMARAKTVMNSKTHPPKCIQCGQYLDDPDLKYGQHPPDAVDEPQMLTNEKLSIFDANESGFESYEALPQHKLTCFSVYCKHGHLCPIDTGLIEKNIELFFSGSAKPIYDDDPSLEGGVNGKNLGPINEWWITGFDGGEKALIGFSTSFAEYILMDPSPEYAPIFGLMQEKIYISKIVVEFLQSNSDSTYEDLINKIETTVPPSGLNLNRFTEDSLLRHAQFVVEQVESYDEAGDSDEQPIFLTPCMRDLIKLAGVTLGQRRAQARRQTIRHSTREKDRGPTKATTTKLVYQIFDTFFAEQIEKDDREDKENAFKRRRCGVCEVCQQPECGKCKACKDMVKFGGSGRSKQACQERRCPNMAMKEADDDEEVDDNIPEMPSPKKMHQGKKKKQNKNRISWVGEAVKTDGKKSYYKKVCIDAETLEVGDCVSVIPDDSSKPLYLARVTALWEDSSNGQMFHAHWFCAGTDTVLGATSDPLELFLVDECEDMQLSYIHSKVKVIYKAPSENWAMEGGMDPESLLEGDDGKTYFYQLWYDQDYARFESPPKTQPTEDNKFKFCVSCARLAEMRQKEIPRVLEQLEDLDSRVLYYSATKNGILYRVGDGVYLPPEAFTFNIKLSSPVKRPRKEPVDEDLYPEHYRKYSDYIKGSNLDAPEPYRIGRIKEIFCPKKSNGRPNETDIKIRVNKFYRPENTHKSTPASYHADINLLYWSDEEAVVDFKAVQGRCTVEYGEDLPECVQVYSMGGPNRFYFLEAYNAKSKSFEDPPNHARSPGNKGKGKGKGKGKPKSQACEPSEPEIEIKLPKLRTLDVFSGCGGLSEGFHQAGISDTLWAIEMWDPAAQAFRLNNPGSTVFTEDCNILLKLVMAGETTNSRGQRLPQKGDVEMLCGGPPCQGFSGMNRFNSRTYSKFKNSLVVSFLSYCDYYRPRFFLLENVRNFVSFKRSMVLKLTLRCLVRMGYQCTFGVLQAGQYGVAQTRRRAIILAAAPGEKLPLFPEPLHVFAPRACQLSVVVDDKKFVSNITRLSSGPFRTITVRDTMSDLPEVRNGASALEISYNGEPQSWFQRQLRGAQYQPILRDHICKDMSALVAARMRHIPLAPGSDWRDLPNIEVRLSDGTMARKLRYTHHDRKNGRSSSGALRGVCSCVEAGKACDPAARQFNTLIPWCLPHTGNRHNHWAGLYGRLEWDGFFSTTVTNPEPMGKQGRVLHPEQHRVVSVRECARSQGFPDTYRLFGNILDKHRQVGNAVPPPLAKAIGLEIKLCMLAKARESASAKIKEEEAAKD

[3] = THP-1 cell cytotoxicity, cytotoxicity control, set 4 (AID 504911); type: functional; settings: Mycobacterium tuberculosis
[4] = target: DNA dC->dU-editing enzyme APOBEC-3A (Homo sapiens, UniProt P31941); experiment: SAR analysis of small molecule inhibitors of APOBEC3A DNA Deaminase via a fluorescence-based single-stranded DNA deaminase assay - Set 2.; type: functional; settings: read-out: IC50_Mean
DNA dC->dU-editing enzyme APOBEC-3A, sequence (P31941 whole entry): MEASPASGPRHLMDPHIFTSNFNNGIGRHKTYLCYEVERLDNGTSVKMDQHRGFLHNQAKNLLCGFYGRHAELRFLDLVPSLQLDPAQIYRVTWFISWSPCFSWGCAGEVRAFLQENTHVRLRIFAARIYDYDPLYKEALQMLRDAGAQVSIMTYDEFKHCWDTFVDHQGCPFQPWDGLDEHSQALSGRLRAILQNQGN

[5] = target: DNA dC->dU-editing enzyme APOBEC-3G (Homo sapiens, UniProt Q9HC16); experiment: SAR analysis of small molecule inhibitors of APOBEC3G DNA Deaminase via a fluorescence-based single-stranded DNA deaminase assay - Set 2.; type: functional; settings: read-out: IC50_Mean
DNA dC->dU-editing enzyme APOBEC-3G, sequence (Q9HC16 whole entry): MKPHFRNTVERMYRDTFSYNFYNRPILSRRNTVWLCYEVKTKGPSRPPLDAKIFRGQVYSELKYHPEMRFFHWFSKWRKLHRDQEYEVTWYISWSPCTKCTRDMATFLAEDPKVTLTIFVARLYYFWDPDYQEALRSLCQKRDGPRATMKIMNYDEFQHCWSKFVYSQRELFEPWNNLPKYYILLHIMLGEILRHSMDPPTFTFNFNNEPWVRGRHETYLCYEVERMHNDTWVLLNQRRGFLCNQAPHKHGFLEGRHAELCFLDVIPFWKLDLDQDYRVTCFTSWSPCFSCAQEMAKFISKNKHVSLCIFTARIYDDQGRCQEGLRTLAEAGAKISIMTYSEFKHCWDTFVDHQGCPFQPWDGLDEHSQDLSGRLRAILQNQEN

[6] = target: T2, Beta-adrenergic receptor kinase 1 (Homo sapiens, UniProt P25098); experiment: aptamer displacement from bead-bound GRK2 – biochemical, cherry pick 1, bead flow cytometry, dose response (AID 504500)
T2 sequence (P25098 whole entry): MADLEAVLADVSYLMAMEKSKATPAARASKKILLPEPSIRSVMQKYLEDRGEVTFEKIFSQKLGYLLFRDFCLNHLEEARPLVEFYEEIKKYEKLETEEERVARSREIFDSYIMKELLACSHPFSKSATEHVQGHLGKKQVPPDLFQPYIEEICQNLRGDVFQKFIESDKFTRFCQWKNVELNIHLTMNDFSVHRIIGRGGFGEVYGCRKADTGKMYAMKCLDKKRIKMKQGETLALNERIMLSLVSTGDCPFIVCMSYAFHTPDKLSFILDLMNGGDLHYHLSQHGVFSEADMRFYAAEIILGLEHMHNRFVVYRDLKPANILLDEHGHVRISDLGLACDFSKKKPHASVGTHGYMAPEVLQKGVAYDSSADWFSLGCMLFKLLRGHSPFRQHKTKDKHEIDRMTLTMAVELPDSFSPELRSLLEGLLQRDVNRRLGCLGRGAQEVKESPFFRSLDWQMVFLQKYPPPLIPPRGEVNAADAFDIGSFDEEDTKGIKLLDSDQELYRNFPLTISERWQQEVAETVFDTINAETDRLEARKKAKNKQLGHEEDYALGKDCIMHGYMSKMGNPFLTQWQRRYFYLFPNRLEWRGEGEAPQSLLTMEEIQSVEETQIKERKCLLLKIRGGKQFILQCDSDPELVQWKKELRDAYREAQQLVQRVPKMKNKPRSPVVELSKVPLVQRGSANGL

[7] = target: T3, Caspase-6 (Homo sapiens, UniProt P55212); experiment: human caspase-6 inhibitors, dose response, biochemical, VEID-R110 fluorescence, cherry-pick (AID 720632)
T3 sequence (P55212 whole entry): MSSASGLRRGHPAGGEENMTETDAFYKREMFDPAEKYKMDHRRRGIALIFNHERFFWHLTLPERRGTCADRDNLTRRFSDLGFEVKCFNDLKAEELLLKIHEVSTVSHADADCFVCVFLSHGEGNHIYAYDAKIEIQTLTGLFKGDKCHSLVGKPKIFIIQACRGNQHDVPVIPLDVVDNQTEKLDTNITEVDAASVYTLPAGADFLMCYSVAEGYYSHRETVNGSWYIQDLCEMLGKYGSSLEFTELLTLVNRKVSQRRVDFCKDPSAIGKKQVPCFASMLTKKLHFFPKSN

[8] = system: HEK293; experiment: inhibitors of LMP1-driven NF-kB reporter, dose response, cell-based, HEK293, luciferase, cherry-pick (AID 588343); type: functional; settings: Homo sapiens
[9] = target: T4, Interleukin-8 (Homo sapiens, UniProt P10145); experiment: Dose Response confirmation of uHTS small molecule hits for cystic fibrosis induced NFkb Inhibitors in a TNFa-induced IL8 counterscreen.; type: functional; settings: read-out: IC50_Mean
T4 sequence (P10145 whole entry): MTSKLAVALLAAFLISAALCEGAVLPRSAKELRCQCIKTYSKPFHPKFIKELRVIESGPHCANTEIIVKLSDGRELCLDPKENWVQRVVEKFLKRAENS

[10] = target: T4, Interleukin-8; experiment: Dose Response confirmation of uHTS small molecule hits for cystic fibrosis induced NFkb Inhibitors in a PAF-induced IL8 counterscreen.; type: functional; settings: read-out: IC50_Mean
[11] = target: Tyrosine-protein phosphatase non-receptor type 11 (Homo sapiens, UniProt Q06124); experiment: SHP2 phosphatase inhibition, dose response, selectivity assay for STEP inhibitor project, biochemical (AID 602367); type: functional; settings: read-out: IC50_Mean
Tyrosine-protein phosphatase non-receptor type 11, sequence (Q06124 whole entry): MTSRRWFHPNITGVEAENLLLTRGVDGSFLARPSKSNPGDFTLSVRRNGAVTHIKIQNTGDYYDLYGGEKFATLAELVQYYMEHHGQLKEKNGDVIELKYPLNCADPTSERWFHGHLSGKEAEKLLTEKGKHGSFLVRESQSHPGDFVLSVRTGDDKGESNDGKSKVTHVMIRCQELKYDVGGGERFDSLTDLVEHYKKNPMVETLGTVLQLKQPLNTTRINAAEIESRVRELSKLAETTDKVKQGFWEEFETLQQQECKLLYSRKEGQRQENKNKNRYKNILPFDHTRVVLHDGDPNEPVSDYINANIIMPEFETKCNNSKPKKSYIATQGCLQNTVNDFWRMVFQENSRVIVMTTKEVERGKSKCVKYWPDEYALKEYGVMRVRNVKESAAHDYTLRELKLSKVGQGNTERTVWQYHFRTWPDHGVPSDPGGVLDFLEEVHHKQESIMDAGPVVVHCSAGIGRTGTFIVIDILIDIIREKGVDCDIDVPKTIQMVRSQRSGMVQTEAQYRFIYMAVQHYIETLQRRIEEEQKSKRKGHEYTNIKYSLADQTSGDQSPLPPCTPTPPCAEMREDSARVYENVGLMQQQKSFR

[12] = target: Tyrosine-protein phosphatase non-receptor type 5 (Homo sapiens, UniProt P54829); experiment: STEP phosphatase inhibitors, confirmation, biochemical, fluorescence intensity, uHTS hits (AID 602372); type: functional; settings: read-out: IC50_Mean
Tyrosine-protein phosphatase non-receptor type 5, sequence (P54829 whole entry): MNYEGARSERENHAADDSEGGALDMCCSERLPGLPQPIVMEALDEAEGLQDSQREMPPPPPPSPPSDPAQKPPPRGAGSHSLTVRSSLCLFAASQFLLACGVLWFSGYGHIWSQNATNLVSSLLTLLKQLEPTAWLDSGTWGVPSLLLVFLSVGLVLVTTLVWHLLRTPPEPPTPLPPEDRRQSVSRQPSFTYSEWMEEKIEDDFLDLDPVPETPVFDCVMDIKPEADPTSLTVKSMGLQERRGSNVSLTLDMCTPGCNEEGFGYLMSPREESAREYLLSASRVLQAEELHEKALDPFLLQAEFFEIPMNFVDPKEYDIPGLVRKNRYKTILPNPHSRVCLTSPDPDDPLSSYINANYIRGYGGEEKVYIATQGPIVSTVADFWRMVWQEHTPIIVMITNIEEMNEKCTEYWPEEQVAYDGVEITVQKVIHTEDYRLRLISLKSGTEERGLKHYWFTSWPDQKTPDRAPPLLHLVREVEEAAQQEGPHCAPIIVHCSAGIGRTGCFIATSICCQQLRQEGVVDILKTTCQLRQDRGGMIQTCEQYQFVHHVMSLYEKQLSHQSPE

[13] = target: Dual specificity protein phosphatase 3 (Homo sapiens, UniProt P51452); experiment: VHR phosphatase inhibition, dose response, selectivity assay for STEP inhibitor project, biochemical (AID 602374); type: functional; settings: read-out: IC50_Mean
Dual specificity protein phosphatase 3, sequence (P51452 whole entry): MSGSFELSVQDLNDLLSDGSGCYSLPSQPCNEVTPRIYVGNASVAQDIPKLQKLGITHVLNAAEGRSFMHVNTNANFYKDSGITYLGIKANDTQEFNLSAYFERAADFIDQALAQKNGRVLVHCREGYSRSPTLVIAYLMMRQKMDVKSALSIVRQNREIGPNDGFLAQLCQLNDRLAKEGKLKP

[14] = target: T5, Aryl hydrocarbon receptor (Homo sapiens, UniProt P35869); settings: Potency;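 further: confirmatory quantitative high-throughput screen measuring activation of the AhR signaling pathway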
T5 sequence (P35869 whole entry): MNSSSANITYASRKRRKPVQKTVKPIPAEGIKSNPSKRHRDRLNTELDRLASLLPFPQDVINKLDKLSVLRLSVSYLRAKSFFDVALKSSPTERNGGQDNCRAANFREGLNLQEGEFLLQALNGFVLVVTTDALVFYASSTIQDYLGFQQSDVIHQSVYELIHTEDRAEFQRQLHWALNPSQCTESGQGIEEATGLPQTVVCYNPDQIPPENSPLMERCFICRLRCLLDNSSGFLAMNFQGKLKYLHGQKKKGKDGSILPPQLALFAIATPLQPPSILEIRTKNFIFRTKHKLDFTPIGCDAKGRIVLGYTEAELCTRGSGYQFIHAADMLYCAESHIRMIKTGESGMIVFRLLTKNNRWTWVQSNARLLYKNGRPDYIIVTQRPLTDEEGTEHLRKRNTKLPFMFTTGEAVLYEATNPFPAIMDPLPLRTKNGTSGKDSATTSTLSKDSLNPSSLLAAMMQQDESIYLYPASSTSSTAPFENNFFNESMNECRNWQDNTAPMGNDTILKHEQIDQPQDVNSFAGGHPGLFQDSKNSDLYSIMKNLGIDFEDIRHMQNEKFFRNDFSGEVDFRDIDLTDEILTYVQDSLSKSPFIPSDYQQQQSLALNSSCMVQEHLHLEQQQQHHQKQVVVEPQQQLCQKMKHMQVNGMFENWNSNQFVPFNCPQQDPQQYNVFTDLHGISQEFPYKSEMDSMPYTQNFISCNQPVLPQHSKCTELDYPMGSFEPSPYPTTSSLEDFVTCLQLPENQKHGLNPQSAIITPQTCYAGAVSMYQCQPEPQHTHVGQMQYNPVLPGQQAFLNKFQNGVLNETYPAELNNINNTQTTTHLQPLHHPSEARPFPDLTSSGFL

COc1cc(/C=C(\CCC(=O)O)c2nc3ccccc3s2)ccc1OCC(=O)Nc1c(Cl)cccc1Cl
IC50 [1]: 2.3 µM (active) | IC50 [2]: 10.1 µM (active)

O=C(CSc1nccc(=O)[nH]1)NC1CCCCC1
CC50 [3]: > 100 µM (active)

Cc1nc2sc3c(c2c2n[nH]c(=S)n12)CCCC3
IC50 [4]: > 99 µM (inactive) | IC50 [5]: 0.693 µM (active)

CCOc1ccc(CCNC(=O)C2CC(C)=CCC2C(=O)O)cc1OCC (stereo not given)
EC50 [6]: 51.3 µM (inactive) | IC50 [1]: 21 µM (active) | AC50 [7]: 15.5 µM (active)

Cc1cc(N2CCOCC2)c2c(N)c(Br)cc(C)c2n1
AC50 [8]: 8.08 µM (active) | IC50 [9]: > 79 µM (inactive) | IC50 [10]: 8.34 µM (active)

CCCN(CC(=O)Nc1ccccc1OC)C(=O)Cc1ccc2c(c1)CCC2
IC50 [11]: 4.79 µM (active) | IC50 [12]: 19.5 µM (active) | IC50 [13]: 1.32 µM (active)

N[C@@H](Cc1c[nH]c2ccc(O)cc12)C(=O)O [OXITRIPTAN]
AC50 [14]: 39.8 µM (inconclusive)
